The source of these data is publication PMC10606064, “2-Aminothiazole-Flavonoid Hybrid Derivatives Binding to Tau Protein and Responsible for Antitumor Activity in Glioblastoma” (International Journal of Molecular Sciences, 2023).

One may read the IC50 as the concentration needed to halve the response being measured.

Assay [1] relates to LC3 proteins in U87 shCTRL and shTau cells. The assay can be described thus: LC3-II/LC3-I ratio by Western blot (autophagosomes). In kind it is cell-based, human. Conditions: both cell types, 5 µM, 48 h. The protocol:
Cells were lysed with freshly made RIPA buffer derivative (4.3 mL of TBS 1×, 50 µL of SDS 10%, 10 µL of EDTA 0.5 M, 500 µL of Triton 10×, and 1% inhibitors of protease and phosphatase). After 30 min of lysis at 4 °C under agitation, lysates were centrifuged at 10,000× g for 10 min at 4 °C. Equivalent amounts of proteins from the supernatant fraction were subjected to Western blot analysis. Protein samples were loaded (40 μg/lane) and separated on 10 or 12% sodium dodecyl sulfate-polyacrylamide gels. The separated proteins were transferred onto nitrocellulose blotting membrane using the Bio-Rad transfer system. […] The band intensity was quantified using the ImageJ v1.50g software. […] The band intensity was quantified using the NIH ImageJ v1.50g software.
Figure 4 Compounds (2) and (9) affect autophagy function machinery and alter mitochondrial morphology. […] (A) Quantities of autophagy LC3 proteins were analyzed by Western blot of U87 shCTRL and U87 shTau cells: for each sample, the ratio of the amount of mature (LC3-II) to immature (LC3-I) isoform was calculated as relative fold of the reference value (with or without the compound); significant statistical differences were calculated using one-way ANOVA with a post hoc Tukey–Kramer HSD test with (*) p < 0.01 from three independent experiments; ns: non-significant. […]
A general note: A western blot detects proteins with antibodies after separation by electrophoresis.

Assay [2] deals with Caco-2 colon adenocarcinoma cells. As to the kind of experiment: MTT cell viability assay, Caco-2. In kind it is cell-based. Conditions: Homo sapiens, Caco-2 (not expressing Tau), 72 h, mean ± SEM, read-out: IC50 (metabolic activity). The protocol: Cells harvested from sub-confluent monolayers were seeded at 15,000 cells per mL in a 96-well microtiter plate (Cambridge Technology, Labège, France) and cultured for 24 h under standard conditions. Standard medium was then replaced by fresh medium containing no drugs or compounds at different concentrations. The surviving cells were quantified after 72 h by the MTT assay, according to the manufacturer’s instructions. Briefly, 20 µL of 3-(4,5-diMethylThiazol-2-yl)-2,5diphenyl Tetrazolium bromide (MTT) solution at 5 mg.mL^−1 was added to cells for 3 h at 37 °C. The supernatant was discarded and replaced by 100 µL of dimethyl sulfoxide to dissolve formazan crystals. The absorbance was then read at 600 nm by spectrophotometry. For all concentrations of a given compound, cell viability was expressed as the percentage of the ratio between the mean absorbance of treated cells and the mean absorbance of untreated cells. Three independent experiments were performed, and the data were expressed as percentage of survival (using the untreated cells as 100%) and subjected to statistical analysis (n = 3). The IC50 was calculated using the Chou and Talalay method.
Background: Tetrazolium assays rely on reduction of a dye to a coloured formazan, in cell work by metabolically active cells.

A further assay deals with U87 shCTRL cells. The assay can be described thus: Mitotic index by high-content imaging, U87 shCTRL. The format is cell-based, human. Conditions: 48 h, 5-times IC50 of compounds. The protocol: For scoring mitotic indexes, an automated high-content screening confocal microscopy approach was employed to identify cells undergoing mitosis from a large population of cells. For this, cells nuclei were stained with DAPI. Briefly, fibronectin-coated clear-glass-bottom black 96-well imaging plates were seeded with 100 µL of cell suspension (60,000 cell.mL^−1) in each well, with both U87 shCTRL and U87 ShTau cell lines. Cells were treated with 5-times IC50 of compounds for 48 h, then they were fixated inside the palates with 4% formaldehyde (in PBS pH 7.4) for 20 min at room temperature, permeabilized with PBS-Triton X-100 0.5% for 10 min at room temperature. DNA was then stained with DAPI (10 µg.mL^−1) for 5 min at room temperature and in the darkness. After being washed, cells were kept in PBS at 4 °C and imaged while in PBS. Automated confocal microscopy was carried out using an Opera Phenix (PerkinElmer) high-content screening microscope using a 20× Air/0.4 NA air objective. For each condition, 6 wells were prepared and a total of 61 fields were acquired for each well. Image analysis was performed using Harmony high-content analysis v4.8 software and PhenoLOGIC Machine Learning technology, which uses a learn-by-example approach. As a first step, nuclei were segmented and multiple parameters for these nuclei were calculated using Harmony v4.8 software building blocks. After training, PhenoLOGIC Machine Learning then selects the best parameters to detect nuclei undergoing the M phase of mitosis. From this, the mitotic index of each condition was calculated by dividing the number of cells undergoing mitosis over the total number of cells.

As for `Nc1nc2ccc3oc(C(=O)O)cc(=O)c3c2s1` [Compound 5], in assay [1], the “ratio of mature LC3-II to immature LC3-I” value is listed as “no statistically significant changes in ratios”. In assay [2], the IC50 was over 100 µM. Further, the mitotic index in the assay on U87 shCTRL cells was found to be 2.47 ± 0.19%.

Take `Nc1nc2ccc3oc(-c4cccc(Oc5ccccc5)c4)cc(=O)c3c2s1` [Compound 2, 2-amino-7-(3-phenoxyphenyl)-9H-chromeno [6,5-d]thiazol-9-one]: the “ratio of mature LC3-II to immature LC3-I” value in assay [1] is “no statistically significant changes in ratios”. In assay [2], the IC50 was over 100 µM. Besides, in the assay on U87 shCTRL cells, the mitotic index result is “no significant variation of mitotic indexes”.
